{"source": "paper PMC8237303", "about": "(Heliyon, 2021)", "key": {"[1]": {"biological_target": "Prostanoid EP2 receptor (Human) (Homo sapiens, UniProt P43116)", "sequence (P43116 whole entry)": "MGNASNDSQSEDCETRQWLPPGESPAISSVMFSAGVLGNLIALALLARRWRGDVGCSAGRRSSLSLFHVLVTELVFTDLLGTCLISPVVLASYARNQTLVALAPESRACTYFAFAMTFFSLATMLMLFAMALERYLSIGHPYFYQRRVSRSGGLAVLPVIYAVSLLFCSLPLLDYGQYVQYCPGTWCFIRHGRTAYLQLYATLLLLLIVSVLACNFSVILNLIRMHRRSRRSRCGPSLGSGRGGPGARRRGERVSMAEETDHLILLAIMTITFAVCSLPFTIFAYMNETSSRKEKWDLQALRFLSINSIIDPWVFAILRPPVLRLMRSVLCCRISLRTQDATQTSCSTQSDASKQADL", "assay": "[3H]-Prostaglandin E2 binding assay", "details": "0.1 mM l-menthol; Human recombinant"}, "[2]": {"biological_target": "Histamine H3 receptor (Human) (Homo sapiens, UniProt Q9Y5N1)", "sequence (Q9Y5N1 whole entry)": "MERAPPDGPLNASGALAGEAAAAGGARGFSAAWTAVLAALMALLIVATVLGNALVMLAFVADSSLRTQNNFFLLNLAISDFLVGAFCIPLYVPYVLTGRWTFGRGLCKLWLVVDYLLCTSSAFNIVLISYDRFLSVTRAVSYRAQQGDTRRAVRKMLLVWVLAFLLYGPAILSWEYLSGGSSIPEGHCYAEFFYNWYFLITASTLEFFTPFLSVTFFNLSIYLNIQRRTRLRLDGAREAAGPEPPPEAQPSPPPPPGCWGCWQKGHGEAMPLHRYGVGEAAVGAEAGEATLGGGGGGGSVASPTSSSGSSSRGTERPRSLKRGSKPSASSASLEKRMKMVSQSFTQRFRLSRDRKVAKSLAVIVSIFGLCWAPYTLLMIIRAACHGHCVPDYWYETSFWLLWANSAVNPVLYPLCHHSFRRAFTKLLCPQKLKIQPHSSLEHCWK", "assay": "N-alpha-[3H]-Methylhistamine, Dihydrochloride binding assay", "details": "0.1 mM l-menthol; Human recombinant"}, "[3]": {"biological_target": "Serotonin transporter (Human) (Homo sapiens, UniProt P31645)", "sequence (P31645 whole entry)": "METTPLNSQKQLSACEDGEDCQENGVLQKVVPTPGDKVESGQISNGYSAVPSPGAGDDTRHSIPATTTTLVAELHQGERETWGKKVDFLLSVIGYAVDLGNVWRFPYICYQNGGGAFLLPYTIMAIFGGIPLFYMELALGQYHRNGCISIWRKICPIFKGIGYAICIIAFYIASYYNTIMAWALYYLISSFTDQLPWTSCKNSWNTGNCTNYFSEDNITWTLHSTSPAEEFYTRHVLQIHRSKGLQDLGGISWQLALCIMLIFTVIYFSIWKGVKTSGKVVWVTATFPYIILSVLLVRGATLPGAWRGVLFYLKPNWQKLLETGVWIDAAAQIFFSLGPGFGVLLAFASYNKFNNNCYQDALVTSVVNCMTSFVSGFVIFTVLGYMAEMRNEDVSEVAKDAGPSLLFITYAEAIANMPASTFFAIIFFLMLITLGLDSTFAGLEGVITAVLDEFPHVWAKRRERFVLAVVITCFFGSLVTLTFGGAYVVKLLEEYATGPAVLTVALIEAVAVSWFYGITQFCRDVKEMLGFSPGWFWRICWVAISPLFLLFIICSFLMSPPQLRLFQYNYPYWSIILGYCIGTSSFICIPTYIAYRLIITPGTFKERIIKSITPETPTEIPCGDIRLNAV", "assay": "[3H]-Imipramine hydrochloride binding assay", "details": "0.1 mM l-menthol; Human recombinant"}, "[4]": {"biological_target": "Dopamine transporter (Human) (Homo sapiens, UniProt Q01959)", "sequence (Q01959 whole entry)": "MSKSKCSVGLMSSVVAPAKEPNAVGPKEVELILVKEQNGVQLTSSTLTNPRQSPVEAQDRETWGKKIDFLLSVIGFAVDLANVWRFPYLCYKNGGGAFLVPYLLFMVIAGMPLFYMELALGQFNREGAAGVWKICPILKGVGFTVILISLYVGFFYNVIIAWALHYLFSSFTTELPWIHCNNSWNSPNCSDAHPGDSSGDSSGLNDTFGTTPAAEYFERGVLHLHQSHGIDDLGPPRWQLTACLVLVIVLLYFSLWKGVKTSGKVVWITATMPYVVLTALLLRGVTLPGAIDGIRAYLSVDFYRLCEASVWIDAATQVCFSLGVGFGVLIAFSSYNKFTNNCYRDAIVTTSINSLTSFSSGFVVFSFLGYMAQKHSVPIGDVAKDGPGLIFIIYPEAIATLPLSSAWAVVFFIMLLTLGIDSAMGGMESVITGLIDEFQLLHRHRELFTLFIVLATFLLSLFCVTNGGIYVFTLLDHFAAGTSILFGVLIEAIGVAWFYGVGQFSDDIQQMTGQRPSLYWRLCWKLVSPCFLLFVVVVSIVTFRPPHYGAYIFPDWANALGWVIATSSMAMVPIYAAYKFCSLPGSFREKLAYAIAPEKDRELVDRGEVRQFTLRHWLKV", "assay": "[3H]-WIN35,428 binding assay"}, "[5]": {"biological_target": "Glutamate receptor (NMDAglycine site) (Rattus norvegicus, UniProt P35439)", "sequence (P35439 394-800 limits assumed)": "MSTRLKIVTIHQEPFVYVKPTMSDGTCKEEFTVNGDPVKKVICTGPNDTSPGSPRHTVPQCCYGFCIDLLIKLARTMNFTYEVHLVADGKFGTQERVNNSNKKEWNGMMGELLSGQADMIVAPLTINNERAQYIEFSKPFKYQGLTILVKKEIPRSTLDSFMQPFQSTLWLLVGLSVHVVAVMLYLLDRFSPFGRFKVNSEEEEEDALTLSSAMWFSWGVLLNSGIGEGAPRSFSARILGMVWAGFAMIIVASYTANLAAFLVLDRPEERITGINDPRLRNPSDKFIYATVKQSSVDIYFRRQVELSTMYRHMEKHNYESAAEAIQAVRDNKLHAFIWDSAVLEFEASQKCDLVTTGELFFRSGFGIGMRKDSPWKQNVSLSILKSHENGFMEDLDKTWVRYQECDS", "assay": "[3H]-MDL105,519 binding assay", "details": "0.1 mM l-menthol; Rat cerebral cortex"}, "[6]": {"biological_target": "Angiotensin AT1 receptor (Human) (Homo sapiens, UniProt P30556)", "sequence (P30556 whole entry)": "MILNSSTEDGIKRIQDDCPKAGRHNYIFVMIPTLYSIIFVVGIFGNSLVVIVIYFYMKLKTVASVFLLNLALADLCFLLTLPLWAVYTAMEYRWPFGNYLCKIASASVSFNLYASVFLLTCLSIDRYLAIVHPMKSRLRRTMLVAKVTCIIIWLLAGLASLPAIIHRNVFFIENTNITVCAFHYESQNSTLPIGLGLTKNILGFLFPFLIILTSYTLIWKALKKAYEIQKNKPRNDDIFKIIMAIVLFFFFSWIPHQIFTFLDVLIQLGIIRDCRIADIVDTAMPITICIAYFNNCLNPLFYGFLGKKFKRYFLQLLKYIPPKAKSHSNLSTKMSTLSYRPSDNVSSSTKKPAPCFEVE", "assay": "[125I]-Angiotensin II", "assay_type": "binding", "details": "0.1 mM l-menthol; Human recombinant"}, "[7]": {"biological_target": "Serotonin 5HT3 receptor (Human) (Homo sapiens, UniProt P46098)", "sequence (P46098 24-478)": "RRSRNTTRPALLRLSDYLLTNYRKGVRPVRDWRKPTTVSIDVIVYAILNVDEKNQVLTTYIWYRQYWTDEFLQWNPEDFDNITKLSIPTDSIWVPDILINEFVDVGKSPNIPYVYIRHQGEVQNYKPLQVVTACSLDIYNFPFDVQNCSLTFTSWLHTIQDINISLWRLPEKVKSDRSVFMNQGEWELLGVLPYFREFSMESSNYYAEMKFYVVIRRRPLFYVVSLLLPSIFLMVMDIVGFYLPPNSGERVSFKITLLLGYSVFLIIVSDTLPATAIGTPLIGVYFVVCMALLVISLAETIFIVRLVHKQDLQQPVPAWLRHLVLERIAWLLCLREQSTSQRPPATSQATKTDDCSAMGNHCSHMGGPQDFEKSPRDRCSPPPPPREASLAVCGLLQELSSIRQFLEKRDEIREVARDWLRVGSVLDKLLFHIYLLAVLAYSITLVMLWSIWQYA", "assay": "[3H]-GR65630 binding assay", "details": "0.1 mM l-menthol; Human recombinant"}, "[8]": {"biological_target": "Serotonin 5HT2A receptor (Human) (Homo sapiens, UniProt P28223)", "sequence (P28223 whole entry)": "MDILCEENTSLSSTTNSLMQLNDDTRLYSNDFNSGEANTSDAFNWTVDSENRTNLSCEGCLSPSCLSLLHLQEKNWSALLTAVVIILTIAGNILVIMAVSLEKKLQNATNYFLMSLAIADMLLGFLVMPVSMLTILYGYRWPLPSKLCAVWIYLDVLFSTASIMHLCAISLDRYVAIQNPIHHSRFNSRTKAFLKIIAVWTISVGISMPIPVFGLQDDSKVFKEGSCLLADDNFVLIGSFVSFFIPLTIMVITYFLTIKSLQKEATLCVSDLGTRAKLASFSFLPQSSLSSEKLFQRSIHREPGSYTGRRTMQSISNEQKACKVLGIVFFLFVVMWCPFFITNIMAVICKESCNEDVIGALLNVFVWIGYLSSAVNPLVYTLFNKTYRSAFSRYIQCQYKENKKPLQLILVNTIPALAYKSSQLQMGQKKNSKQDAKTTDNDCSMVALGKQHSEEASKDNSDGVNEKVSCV", "assay": "[3H]-Ketanserin hydrochloride binding assay", "details": "0.1 mM l-menthol; Human recombinant"}, "K Channel KATP": {"tested_on": "K Channel KATP", "assay": "[3H]-Glybenclamide binding assay", "details": "0.1 mM l-menthol; Rat whole brain"}, "[9]": {"biological_target": "Opiate κ receptor (Human) (Homo sapiens, UniProt P41145)", "sequence (P41145 whole entry)": "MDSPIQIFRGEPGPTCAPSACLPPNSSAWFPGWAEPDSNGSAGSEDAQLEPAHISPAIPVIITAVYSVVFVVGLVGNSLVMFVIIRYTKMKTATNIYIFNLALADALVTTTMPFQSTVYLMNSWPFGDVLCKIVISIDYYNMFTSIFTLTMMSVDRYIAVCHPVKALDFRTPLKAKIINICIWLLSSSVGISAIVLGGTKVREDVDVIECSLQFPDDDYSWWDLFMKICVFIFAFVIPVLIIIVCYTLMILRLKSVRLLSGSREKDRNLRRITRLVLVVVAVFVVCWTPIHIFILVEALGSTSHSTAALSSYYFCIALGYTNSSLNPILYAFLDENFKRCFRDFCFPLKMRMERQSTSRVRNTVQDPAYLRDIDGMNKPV", "assay_type": "binding", "details": "0.1 mM l-menthol"}, "[10]": {"biological_target": "Testosterone receptor (Human) (Homo sapiens, UniProt P10275)", "assay": "[3H]-Methyltrienolone", "assay_type": "binding", "details": "0.1 mM l-menthol"}}, "data": [{"smiles": "CC(C)[C@@H]1CC[C@@H](C)C[C@H]1O", "note": "[l-menthol]", "values": [{"measurement": "Inhibition by l-Menthol (%)", "setting": "[1]", "value": 0.66, "unit": "%"}, {"measurement": "Inhibition by l-Menthol (%)", "setting": "[2]", "value": 0, "unit": "%"}, {"measurement": "Inhibition by l-Menthol (%)", "setting": "[3]", "value": 0, "unit": "%"}, {"measurement": "Concentration dependence of inhibition of the [3H]-WIN35,428 binding", "setting": "[4]", "value": "concentration-dependent"}, {"measurement": "Inhibition by l-Menthol (%)", "setting": "[4]; 0.1 mM l-menthol, Human recombinant", "value": 20.67, "unit": "%"}, {"measurement": "IC50", "setting": "[4]; read-out: IC50 for inhibition of the [3H]-WIN35,428 binding, human recombinant dopamine transporter, 7 concentrations, duplicate", "value": 719, "unit": "µM"}, {"measurement": "Ki", "setting": "[4]; read-out: Ki (mol/L), inhibition of the binding of [3H]-WIN35,428, Dopamine transporter (Human), Ki=IC50/(1+[L/Kd])", "value": 0.000615, "unit": "mol/L"}, {"measurement": "Inhibition by l-Menthol (%)", "setting": "[5]", "value": 2.56, "unit": "%"}, {"measurement": "Inhibition by l-Menthol (%)", "setting": "[6]", "value": 16.92, "unit": "%"}, {"measurement": "Inhibition by l-Menthol (%)", "setting": "[7]", "value": 2.21, "unit": "%"}, {"measurement": "Inhibition by l-Menthol (%)", "setting": "[8]", "value": 8.32, "unit": "%"}, {"measurement": "Inhibition by l-Menthol (%)", "setting": "K Channel KATP", "value": 2.08, "unit": "%"}, {"measurement": "Inhibition by l-Menthol (%)", "setting": "[9]", "value": 4.86, "unit": "%"}, {"measurement": "Inhibition by l-Menthol (%)", "setting": "[10]", "value": 0, "unit": "%"}]}]}
